In patent US20240424111A1, “Degrader Compounds and Uses Thereof” (CALICO LIFE SCIENCES LLC, priority 2021, published 2024):

Legend:
PTPN2 [1] = biological target: T1, PTPN2 (Homo sapiens, UniProt P17706); test: HiBiT PTPN2 degradation in 293T.109 (HiBiT-PTPN2) cells, 24 hours; assay type: cell-based; details: 293T.109 cells
T1 construct: expressed in transfected cells; host or cells: 293T.109 (HiBiT-PTPN2), derived from 293T WT (ATCC)
T1 sequence (P17706 1-415): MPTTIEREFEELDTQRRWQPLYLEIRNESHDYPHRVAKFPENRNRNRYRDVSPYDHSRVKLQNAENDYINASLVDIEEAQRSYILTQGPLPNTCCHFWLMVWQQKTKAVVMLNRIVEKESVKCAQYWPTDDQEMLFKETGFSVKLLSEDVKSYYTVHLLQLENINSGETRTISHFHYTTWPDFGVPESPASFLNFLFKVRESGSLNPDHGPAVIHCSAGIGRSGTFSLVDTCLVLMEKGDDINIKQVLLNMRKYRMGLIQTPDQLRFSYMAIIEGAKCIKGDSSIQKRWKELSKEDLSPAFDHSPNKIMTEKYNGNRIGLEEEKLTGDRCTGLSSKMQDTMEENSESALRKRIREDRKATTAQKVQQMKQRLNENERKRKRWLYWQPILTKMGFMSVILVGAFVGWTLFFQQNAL
Excerpt: Dulbecco's modified Eagle medium (DMEM) without phenol red and fetal bovine serum (FBS) were purchased from Gibco (Grand Island, NY, USA). Nano-Glo® HiBiT Lytic Assay System was purchased from Promega (Medison, WI, USA). 293T. 109 (HiBiT-PTPN2) cell line was generated by ectopically expressing PTPN2 with N-terminal HiBiT fusion tag in 293T WT cell line purchased from ATCC (Manassas, VA, USA). Cell culture flasks and 384-well microplates were acquired from VWR (Radnor, PA, USA).
PTPN2 Degradation Analysis
(§1) PTPN2 degradation was determined based on quantification of luminescent signal using Nano-Glo® HiBiT Lytic Assay kit. Test compounds were added to the 384-well plate from a top concentration of 10 μM with 11 points, half log titration in duplicates. 293T. 109 cells were added into 384-well plates at a cell density of 5000 cells per well. The plates were kept at 37° C. with 5% CO2 for 24 hours. The cells treated in the absence of the test compound were the negative control and the cells without Nano-Glo® HiBiT Lytic reagent were the positive control. After 24-hour incubation, Nano-Glo® HiBiT Lytic Assay reagents were added to the cells. Luminescence was acquired on EnVision™ Multilabel Reader (PerkinElmer, Santa Clara, CA, USA).

PTPN2 [2] = biological target: T2, PTPN2 (Mus musculus, UniProt Q06180); test: HiBiT PTPN2 degradation in B16F10.4 cells, 24 hours; assay type: cell-based
T2 construct: HiBiT; host or cells: B16F10.4
T2 sequence (Q06180 1-406): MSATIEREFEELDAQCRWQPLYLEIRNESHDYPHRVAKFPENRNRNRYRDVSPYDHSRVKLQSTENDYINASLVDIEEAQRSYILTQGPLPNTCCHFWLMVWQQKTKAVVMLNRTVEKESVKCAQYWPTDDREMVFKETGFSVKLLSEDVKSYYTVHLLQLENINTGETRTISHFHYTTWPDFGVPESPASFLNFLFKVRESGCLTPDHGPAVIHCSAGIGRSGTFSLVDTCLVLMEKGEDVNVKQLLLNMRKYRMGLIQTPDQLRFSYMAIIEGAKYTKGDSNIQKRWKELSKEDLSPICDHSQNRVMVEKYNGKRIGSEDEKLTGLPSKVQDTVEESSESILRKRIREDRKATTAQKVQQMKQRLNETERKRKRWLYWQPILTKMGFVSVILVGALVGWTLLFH
Description: as §1

SMILES | DC50 (PTPN2 [1]) | DC50 (PTPN2 [2])
Cn1c(=O)n(C2CCC(=O)NC2=O)c2ccc(-c3cccc(CC(=O)Nc4ccc5c(F)c(N6CC(=O)NS6(=O)=O)c(O)cc5c4)c3)cc21 (centres unmarked) [Degrader 77] | 150 to 500 nM | ≥ 500 nM
Cn1c(=O)n(C2CCC(=O)NC2=O)c2ccc(C3CCN(C/C=C/c4ccc5c(F)c(N6CC(=O)NS6(=O)=O)c(O)cc5c4)CC3)cc21 (centres unmarked) [Degrader 78] | 150 to 500 nM | ≥ 500 nM
Cc1cc(-c2ccc3c(c2)n(C)c(=O)n3C2CCC(=O)NC2=O)ccc1CC(=O)Nc1ccc2c(F)c(N3CC(=O)NS3(=O)=O)c(O)cc2c1 (centres unmarked) [Degrader 79] | 50 to 150 nM | 50 to 150 nM
Cn1c(=O)n(C2CCC(=O)NC2=O)c2ccc(-c3cccc(CCC(=O)Nc4ccc5c(F)c(N6CC(=O)NS6(=O)=O)c(O)cc5c4)c3)cc21 (centres unmarked) [Degrader 80] | < 50 nM | 150 to 500 nM
Cc1cc(CC(=O)Nc2ccc3c(F)c(N4CC(=O)NS4(=O)=O)c(O)cc3c2)ccc1Oc1ccc2c(c1)n(C)c(=O)n2C1CCC(=O)NC1=O (centres unmarked) [Degrader 81] | 50 to 150 nM | 50 to 150 nM
Cn1cc(C(=O)Nc2ccc3c(F)c(N4CC(=O)NS4(=O)=O)c(O)cc3c2)c2ccc(-c3ccc4c(c3)n(C)c(=O)n4C3CCC(=O)NC3=O)cc21 (centres unmarked) [Degrader 82] | 150 to 500 nM | 150 to 500 nM
Cn1c(=O)n(C2CCC(=O)NC2=O)c2ccc(-c3cc4cnn(CC(=O)Nc5ccc6c(F)c(N7CC(=O)NS7(=O)=O)c(O)cc6c5)c4cc3F)cc21 (centres unmarked) [Degrader 83] | < 50 nM | < 50 nM
Cn1c(=O)n(C2CCC(=O)NC2=O)c2ccc(N3CCC4(CC3)CN(CC(=O)Nc3ccc5c(F)c(N6CC(=O)NS6(=O)=O)c(O)cc5c3)C4)cc21 (centres unmarked) [Degrader 84] | 50 to 150 nM | 150 to 500 nM
Cc1nn(C2CCC(=O)NC2=O)c2ccc(-c3ccc(CC(=O)Nc4ccc5c(F)c(N6CC(=O)NS6(=O)=O)c(O)cc5c4)cc3)cc12 (centres unmarked) [Degrader 85] | 150 to 500 nM | 150 to 500 nM
O=C1CCC(n2c3ccc(CCCCNC(=O)Nc4ccc5c(F)c(N6CC(=O)NS6(=O)=O)c(O)cc5c4)cc3c3cccnc32)C(=O)N1 (centres unmarked) [Degrader 86] | ≥ 500 nM | ≥ 500 nM
Cc1cc(CC(=O)Nc2ccc3c(F)c(N4CC(=O)NS4(=O)=O)c(O)cc3c2)ccc1N(C)c1ccc2c(c1)n(C)c(=O)n2C1CCC(=O)NC1=O (centres unmarked) [Degrader 87] | 50 to 150 nM | 50 to 150 nM
Cn1c(=O)n(C2CCC(=O)NC2=O)c2ccc(-n3ccc(CC(=O)Nc4ccc5c(F)c(N6CC(=O)NS6(=O)=O)c(O)cc5c4)n3)cc21 (centres unmarked) [Degrader 88] | 150 to 500 nM | ≥ 500 nM
Cn1c(=O)n(C2CCC(=O)NC2=O)c2ccc(N3CCC(CNC(=O)Nc4ccc5c(F)c(N6CC(=O)NS6(=O)=O)c(O)cc5c4)CC3)cc21 (centres unmarked) [Degrader 89] | 50 to 150 nM | 50 to 150 nM
C[C@H]1CN(c2ccc3c(c2)n(C)c(=O)n3C2CCC(=O)NC2=O)CCN1CC(=O)Nc1ccc2c(F)c(N3CC(=O)NS3(=O)=O)c(O)cc2c1 (some centres unmarked) [Degrader 90] | 150 to 500 nM | 50 to 150 nM
C[C@@H]1CN(c2ccc3c(c2)n(C)c(=O)n3C2CCC(=O)NC2=O)CCN1CC(=O)Nc1ccc2c(F)c(N3CC(=O)NS3(=O)=O)c(O)cc2c1 (some centres unmarked) [Degrader 91] | 50 to 150 nM | 150 to 500 nM
Cn1c(=O)n(C2CCC(=O)NC2=O)c2ccc(N3CC4(CCN(CC(=O)Nc5ccc6c(F)c(N7CC(=O)NS7(=O)=O)c(O)cc6c5)CC4)C3)cc21 (centres unmarked) [Degrader 92] | 150 to 500 nM | ≥ 500 nM
Cn1c(=O)n(C2CCC(=O)NC2=O)c2ccc(N3CCN(CNC(=O)Nc4ccc5c(F)c(N6CC(=O)NS6(=O)=O)c(O)cc5c4)CC3)cc21 (centres unmarked) [Degrader 93] | 50 to 150 nM | 50 to 150 nM
Cc1cc(C(C)C(=O)Nc2ccc3c(F)c(N4CC(=O)NS4(=O)=O)c(O)cc3c2)ccc1Nc1ccc2c(c1)n(C)c(=O)n2C1CCC(=O)NC1=O (centres unmarked) [Degrader 94] | 150 to 500 nM | 50 to 150 nM
Cc1nn(CC(=O)Nc2ccc3c(F)c(N4CC(=O)NS4(=O)=O)c(O)cc3c2)c2ccc(-c3ccc4c(c3)n(C)c(=O)n4C3CCC(=O)NC3=O)cc12 (centres unmarked) [Degrader 95] | < 50 nM | < 50 nM
